The values that follow come from PMC9303312, “Balancing Histone Deacetylase (HDAC) Inhibition and Drug‐likeness: Biological and Physicochemical Evaluation of Class I Selective HDAC Inhibitors” (Chemmedchem, 2022).

Data set [1] in a line: Solubility in PBS buffer by OECD flask method with HPLC quantification. In kind it is physicochemical. The note with it: 25 °C, pH 7.4, aqueous buffer, thermodynamic from solid, pH=7.4, flask method, 25 °C, 72 h, mean ±SD, read-out: Solubility.
The target of data set [2] is T1, HDAC1 (Homo sapiens, UniProt Q13547). Nature of the data set: IC50-shift experiments (varied preincubation time). The data set is classed as biochemical. The note with it: triplicates.
Data set [3] addresses T1, HDAC1. Nature of the data set: Binding kinetics via the Progression Method. In kind it is biochemical. Conditions: relationship between kobs and [I]; triplicates.
Experimental: (§1) To determine the binding mechanism at the respective HDAC isoform, a series of progression curves were generated, using fixed concentrations of enzyme, substrate, and different inhibitor concentrations. The in situ AMC release was monitored continuously by fluorescence readings recorded every 30 s for 60 or 90 min at 37 °C. The data of each progression curve were fitted to the appropriate equation (Prism 9.1.0 for MacOS). For inhibitors showing slow‐binding Mechanism I&II (Figure 5) time‐dependent product formation follows Eq. 1: (Eq. 1) P=vsst+vin-vss/kobs1-e^-kobst
(§2) where [P] is the amount of generated AMC, which directly correlates with the amount of deacetylated substrate over time [t]. V in and v ss are the initial and final steady‐state velocities of product formation and k obs is the apparat first‐order rate constant for the conversion from the initial velocity to the steady‐state velocity. It characterizes the formation of an enzyme–inhibitor equilibrium.
Fast‐on/fast‐off inhibitors. […] In this case Eq. 1 simplifies as follows: (Eq. 2) P=vsst
Therefore, the deacetylation rate in absence (v 0) and presence (v i) of the inhibitor is constant over time. […] [I] and [S] are the inhibitor and substrate concentrations, respectively and K m is the Michaelis‐Menten constant.
Slow‐binding inhibitors. The slow‐binding Mechanisms I & II are distinguished by their respective relationships between k obs and the inhibitor concentration. For the single‐step slow‐binding Mechanism I the relationship between inhibitor concentration and k obs is linear. The association and dissociation rate constants (k 1 & k −1, see Figure 5) can be obtained by fitting k obs as a function of [I] to Eq. 4. (Eq. 4) kobs=k-1+k11+S/KmI
The secondary association and dissociation rate constants k 2 & k −2 (see Figure 5) as well as the equilibrium dissociation constant K i,1 of the initial inhibitor‐enzyme encounter complex [EI] can be obtained by fitting k obs as a function of [I] (Eq. 5. (Eq. 5) kobs=k-2+k2/I+Ki,11+S/KmI
Determination of binding kinetics via the Progression Method.[14] HDAC1 and HDAC3
deacetylase activities were evaluated at varying inhibitor concentrations. Appropriate inhibitor
concentrations were chosen based on the previously determined IC50 values. To ensure substrate
excess during the experiment, the substrate concentration was set to five times Km. Km was
determined using a series of substrate concentrations.
For the progression curves, the
respective enzyme was incubated with the fluorogenic substrate and inhibitor in assay buffer
(§3) 90 minutes at 37°C. The relationship between AMC concentration and relative fluorescence units
(RFU) was determined and the measured RFU were transformed into the respective AMC
concentration in µM. […]
Data set [4] concerns the target T1, HDAC1. Nature of the data set: 100-fold Jump-Dilution experiments. The note with it: diluted inhibitor concentration as indicated per compound, vehicle [DMSO 1 %]=111.9. In kind it is biochemical.
For data set [5], the system named is acetylated α‐tubulin (HDAC6 activity) in MCF‐7 cells. The experiment in a line: Western blot target engagement in MCF-7 cells: acetylated α-tubulin. The data set is classed as cell-based, human. Conditions: MCF-7 cell lysates after 24-hour treatment. Background: Immunoblotting shows a protein as a band on a membrane.
Another data set concerns MCF‐7 cells. The experiment in a line: Modified wound healing (migration) assay. In kind it is cell-based, human. The note with it: MCF-7, 10 μM, followed over 97 h, compared to DMSO control.
The test system of data set [6] is T‐47D breast cancer cell line. Nature of the data set: WST-8 cell viability assay. The note with it: Homo sapiens, T47D, 120 h, read-out: IC50 T‐47D.
Data set [7] concerns MCF‐7 breast cancer cell line. Nature of the data set: WST-8 cell viability assay. The note with it: Homo sapiens, MCF7, 120 h, read-out: IC50 MCF‐7.
The test system of data set [8] is BT‐474 breast cancer cell line. The experiment in a line: WST-8 cell viability assay. The note with it: Homo sapiens, BT-474, 120 h, read-out: IC50 BT‐474. In general terms: Tetrazolium dyes change colour on reduction, which living cells bring about.
In data set [9] the target is T2, HDAC2 (Homo sapiens, UniProt Q92769). Nature of the data set: IC50-shift experiments (varied preincubation time). In kind it is biochemical. On the set-up: purchased BPS Bioscience 50052. The note with it: triplicates.
Experimental: (§4) into OptiPlate-96 black micro-plates (PerkinElmer).
(§5) Afterwards, the fluorogenic substrate ZMAL
The total assay volume (50 µL,
(§6) max. […] Subsequently, 50 µL trypsin solution (0.4
(§7) enzymes and the respective inhibitor dilutions were preincubated at 20 °C for 5 to 120 minutes.
(§8) Afterwards, the assay protocol was continued as stated above. Compounds were tested in
(§9) triplicates and the assay was rerun if necessary. The respective IC50 values and P95 confidence
(§10) intervals were determined using Prism 9 for MacOS.
The target of data set [10] is T1, HDAC1. The experiment in a line: In vitro HDAC inhibition preincubation assay (ZMAL substrate).
Data set [11] addresses T2, HDAC2. The data set is described as above.
The target of the next data set is HDAC3/NcoR2 (Homo sapiens, UniProt O15379). The data set is described as above.
In a further data set the target is T3, human recombinant HDAC6 (Homo sapiens, UniProt Q9UBN7).
T3 sequence (Q9UBN7 1-1215): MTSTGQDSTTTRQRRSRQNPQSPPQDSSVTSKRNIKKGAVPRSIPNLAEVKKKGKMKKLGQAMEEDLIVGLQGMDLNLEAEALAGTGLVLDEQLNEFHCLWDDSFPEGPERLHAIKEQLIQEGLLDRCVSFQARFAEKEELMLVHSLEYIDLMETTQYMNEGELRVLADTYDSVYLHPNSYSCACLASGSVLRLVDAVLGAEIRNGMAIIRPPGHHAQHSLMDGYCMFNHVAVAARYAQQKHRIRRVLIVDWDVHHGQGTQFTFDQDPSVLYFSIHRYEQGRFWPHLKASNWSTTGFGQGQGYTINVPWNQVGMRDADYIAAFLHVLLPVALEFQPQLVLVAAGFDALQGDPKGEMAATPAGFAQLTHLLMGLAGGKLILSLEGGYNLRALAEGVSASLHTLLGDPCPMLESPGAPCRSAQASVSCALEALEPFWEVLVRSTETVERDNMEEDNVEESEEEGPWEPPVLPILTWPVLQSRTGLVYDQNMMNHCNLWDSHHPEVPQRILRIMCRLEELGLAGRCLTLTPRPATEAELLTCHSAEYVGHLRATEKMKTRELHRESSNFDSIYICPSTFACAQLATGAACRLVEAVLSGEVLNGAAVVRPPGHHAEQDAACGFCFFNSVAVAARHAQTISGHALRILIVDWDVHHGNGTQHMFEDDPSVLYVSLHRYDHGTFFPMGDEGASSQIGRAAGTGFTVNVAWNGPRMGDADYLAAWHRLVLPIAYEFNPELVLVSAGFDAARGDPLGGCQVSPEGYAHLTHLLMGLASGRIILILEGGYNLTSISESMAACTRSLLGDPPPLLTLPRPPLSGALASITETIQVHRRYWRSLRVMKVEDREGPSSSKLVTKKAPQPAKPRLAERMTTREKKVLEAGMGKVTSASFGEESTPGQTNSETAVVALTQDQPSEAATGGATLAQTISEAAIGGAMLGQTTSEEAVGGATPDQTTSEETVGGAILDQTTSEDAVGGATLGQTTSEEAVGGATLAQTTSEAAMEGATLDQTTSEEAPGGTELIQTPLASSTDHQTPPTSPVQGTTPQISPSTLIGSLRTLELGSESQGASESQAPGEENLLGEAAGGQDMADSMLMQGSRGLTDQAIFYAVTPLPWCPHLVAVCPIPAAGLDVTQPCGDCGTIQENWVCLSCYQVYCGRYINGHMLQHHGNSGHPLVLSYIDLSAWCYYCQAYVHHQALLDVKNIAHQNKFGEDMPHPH
The data set is described as above.

The nature of data set [12]: LogD7.4 by OECD slow-stirring method with HPLC quantification. The note with it: 1-octanol/PBS buffer (mutually saturated), pH 7.4, LogD7.4, slow-stirring method, 1-octanol/PBS buffer pH 7.4, 25 °C, 48 h.
Data set [13] concerns the target T4, HDAC3 (Homo sapiens, UniProt O15379). Nature of the data set: IC50-shift experiments (varied preincubation time). Conditions: triplicates. The data set is classed as biochemical.
Experimental: as §4, §5
The total assay volume (50 µL,
as §6, §7, §8, §9, §10
The target in data set [14] is T4, HDAC3. Nature of the data set: Binding kinetics via the Progression Method. In kind it is biochemical. The note with it: relationship between kobs and [I]; triplicates.
Experimental: as §1, §2
Fast‐on/fast‐off inhibitors. […]
deacetylase activities were evaluated at varying inhibitor concentrations. […]
concentrations were chosen based on the previously determined IC50 values. […]
determined using a series of substrate concentrations. […]
as §3
(RFU) was determined and the measured RFU were transformed into the respective AMC […]
Data set [15] deals with T4, HDAC3. Nature of the data set: 100-fold Jump-Dilution experiments. In kind it is biochemical. Conditions: diluted inhibitor concentration as indicated per compound, vehicle [DMSO 1%] = 56.7.
The next data set can be described thus: physchem. Conditions: 1-octanol/PBS buffer (mutually saturated), pH 7.4.
Where [16] appears, read: HDAC1 IC50, preincubation 5 min, preincubation time 5 min at 20°C.
Where [17] appears, read: HDAC1 IC50, preincubation 30 min, preincubation time 30 min at 20°C.
Setting [18] is: HDAC1 IC50, preincubation 60 min, preincubation time 60 min at 20°C.
Setting [19] is: HDAC1 IC50, preincubation 120 min, preincubation time 120 min at 20°C.

SMILES strings stand for the structures. ≈ marks a conversion by molar mass, not a printed value.

T1 sequence (Q13547 whole entry): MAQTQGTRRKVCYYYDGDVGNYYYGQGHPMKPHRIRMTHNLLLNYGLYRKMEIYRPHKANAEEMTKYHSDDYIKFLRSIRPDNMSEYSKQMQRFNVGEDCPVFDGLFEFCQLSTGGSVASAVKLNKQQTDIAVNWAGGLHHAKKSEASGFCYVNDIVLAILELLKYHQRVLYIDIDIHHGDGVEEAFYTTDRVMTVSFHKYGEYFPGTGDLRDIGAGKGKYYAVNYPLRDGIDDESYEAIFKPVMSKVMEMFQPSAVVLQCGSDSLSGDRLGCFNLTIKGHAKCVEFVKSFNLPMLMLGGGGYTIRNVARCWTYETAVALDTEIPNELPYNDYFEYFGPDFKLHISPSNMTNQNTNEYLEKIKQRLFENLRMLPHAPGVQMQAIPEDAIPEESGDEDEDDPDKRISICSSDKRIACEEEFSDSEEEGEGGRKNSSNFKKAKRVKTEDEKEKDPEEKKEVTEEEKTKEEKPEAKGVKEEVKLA
T4 sequence (O15379 whole entry): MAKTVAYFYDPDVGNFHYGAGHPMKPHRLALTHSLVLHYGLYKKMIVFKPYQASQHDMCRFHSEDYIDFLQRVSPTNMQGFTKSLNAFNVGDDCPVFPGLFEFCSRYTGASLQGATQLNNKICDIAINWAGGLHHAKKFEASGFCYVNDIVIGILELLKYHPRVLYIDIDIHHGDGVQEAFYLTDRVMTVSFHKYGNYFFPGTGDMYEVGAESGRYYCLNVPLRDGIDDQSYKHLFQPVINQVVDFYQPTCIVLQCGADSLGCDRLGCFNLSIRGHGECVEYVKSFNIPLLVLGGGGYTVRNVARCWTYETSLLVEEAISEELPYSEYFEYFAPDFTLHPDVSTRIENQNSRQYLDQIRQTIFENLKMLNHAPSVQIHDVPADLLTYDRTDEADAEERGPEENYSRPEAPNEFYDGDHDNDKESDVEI
T4 sequence (Q9Y618 395-489 partner limits assumed): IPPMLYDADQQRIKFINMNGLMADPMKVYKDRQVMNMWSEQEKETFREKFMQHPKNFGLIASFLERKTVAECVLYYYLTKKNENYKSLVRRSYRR
T2 sequence (Q92769 whole entry): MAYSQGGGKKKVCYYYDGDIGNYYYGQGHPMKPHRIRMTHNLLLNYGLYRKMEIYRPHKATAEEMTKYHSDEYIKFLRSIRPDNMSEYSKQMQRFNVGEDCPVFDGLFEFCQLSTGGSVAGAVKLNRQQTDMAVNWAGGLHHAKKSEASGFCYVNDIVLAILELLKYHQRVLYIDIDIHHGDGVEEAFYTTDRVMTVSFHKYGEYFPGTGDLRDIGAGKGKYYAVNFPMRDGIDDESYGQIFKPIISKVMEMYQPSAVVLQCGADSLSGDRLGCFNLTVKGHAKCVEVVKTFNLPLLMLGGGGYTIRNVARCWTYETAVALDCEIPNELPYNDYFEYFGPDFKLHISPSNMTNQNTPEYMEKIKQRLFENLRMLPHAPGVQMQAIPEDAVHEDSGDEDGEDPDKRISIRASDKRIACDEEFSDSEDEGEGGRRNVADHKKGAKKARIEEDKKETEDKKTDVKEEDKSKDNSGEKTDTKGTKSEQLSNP
Sequence of HDAC3/NcoR2 (O15379 whole entry): as the sequence (O15379 whole entry) above
Sequence of HDAC3/NcoR2 (Q9Y618 395-489 partner limits assumed): as the sequence (Q9Y618 395-489 partner limits assumed) above

Regarding `CC(=O)Nc1ccc(C(=O)Nc2cc(-c3ccncc3)ccc2N)cc1` [6 d], the solubility at 72 h in data set [1] worked out at 16.5 ± 0.3 µg/mL (≈ 47.6 µM). In addition, the 50% inhibitory concentration (IC50) worked out at 54.1 nM at HDAC1 [2] (setting [16]); 53.5 nM on HDAC1 [2] (HDAC1 IC50, preincubation 15 min, preincubation time 15 min at 20°C); 44.5 nM at HDAC1 [2] (setting [17]); 40.8 nM at HDAC1 [2] (setting [18]); 25.4 nM at HDAC1 [2] (setting [19]); 1010 ± 190 nM in [6]. The half-maximal inhibitory concentration (IC50) is 11100 ± 3850 nM in data set [7]; over 8000 nM in data set [8]; 98.2 nM at HDAC2 [9] (HDAC2 IC50, preincubation 5 min, preincubation time 5 min at 20°C); 89 nM on HDAC2 [9] (HDAC2 IC50, preincubation 15 min, preincubation time 15 min at 20°C); 83 nM at HDAC2 [9] (HDAC2 IC50, preincubation 30 min, preincubation time 30 min at 20°C); 77.4 nM on HDAC2 [9] (HDAC2 IC50, preincubation 60 min, preincubation time 60 min at 20°C). The IC50 on HDAC2 [9] (HDAC2 IC50, preincubation 120 min, preincubation time 120 min at 20°C) is 63.2 nM; against HDAC1 [10], 13.2 ± 1 nM; against HDAC2 [11] it was 77.2 ± 9.2 nM; on HDAC3/NcoR2 it was 8910 nM; at human recombinant HDAC6, over 10000 nM. In addition, the “binding mechanism at HDAC1” value at HDAC1 [3] was “slow‐binding Mechanism II”. Also, at HDAC1 [4], the “Final slope of progression curve after 100-fold dilution (HDAC1)” value is listed as 39.4 RFU*min^−1. The “acetylated α‐tubulin (western blot)” value in [5] was “non‐detectable”. In addition, the “effect on cell migration (wound closure)” value in the data set on MCF‐7 cells was “attenuated cell migration significantly”. Besides, the “selectivity for HDAC1 over HDAC3” value at HDAC1 [10] (ratio of IC50 values HDAC3/HDAC1) came out at 675 fold. Besides, the logD at 48 h in data set [12] stood at 1.75.

As for `CN(C)c1ccc(C(=O)N(CC(=O)NCc2ccccc2)Cc2ccc(C(=O)Nc3ccccc3N)cc2)cc1` [VK‐1, reference compound], the IC50 on HDAC1 [2] (setting [16]) came to 93 nM; at HDAC1 [2] (setting [17]), 57.4 nM; on HDAC1 [2] (setting [18]), 48.3 nM; at HDAC1 [2] (setting [19]), 35.6 nM; at HDAC3 [13] (HDAC3 IC50, preincubation 5 min, preincubation time 5 min at 20°C), 794 nM; on HDAC3 [13] (HDAC3 IC50, preincubation 30 min, preincubation time 30 min at 20°C) it was 432 nM. The IC50 turned out to be 299 nM at HDAC3 [13] (HDAC3 IC50, preincubation 60 min, preincubation time 60 min at 20°C); 171 nM on HDAC3 [13] (HDAC3 IC50, preincubation 120 min, preincubation time 120 min at 20°C); 68.6 ± 10.4 nM on HDAC1 [10]; 128 ± 14.5 nM at HDAC2 [11]; 310 ± 7.8 nM at HDAC3/NcoR2. Moreover, at HDAC1 [3], the “binding mechanism at HDAC1” value was “slow‐binding Mechanism II”. Moreover, the “binding mechanism at HDAC3” value at HDAC3 [14] is given as “slow-binding Mechanism II”. Moreover, the “Final slope of progression curve after 100-fold dilution (HDAC1)” value at HDAC1 [4] is reported as 39.2 RFU*min^−1. Moreover, on HDAC3 [15], the “Final slope of progression curve after 100-fold dilution (HDAC3)” value was 2.51 RFU*min-1. In the data set “physchem”, this molecule gave a logD at 48 h of 3.19.

As usually defined, the solubility is the concentration that dissolves in the medium under given conditions. What is called IC50 is the point on the concentration scale where inhibition reaches its midpoint. Broadly, the logD is lipophilicity at a set pH, counting ionised and neutral species.
